These compounds were tested against T1, LH-RH receptors (Rattus norvegicus, UniProt P30969) (assay: Affinity for LH-RH receptors: [125I]-buserelin binding to rat pituitary membranes). Settings: 2 hours at 4° C., 20 to 70 μM [125I]-buserelin, Ki from IC50 by Cheng-Prusoff, read-out: pKi (affinity for LH-RH receptors) (converted).
T1 construct: from tissue; host or cells: rat pituitary membrane fraction (female Sprague Dawley)
T1 sequence (P30969 1-327): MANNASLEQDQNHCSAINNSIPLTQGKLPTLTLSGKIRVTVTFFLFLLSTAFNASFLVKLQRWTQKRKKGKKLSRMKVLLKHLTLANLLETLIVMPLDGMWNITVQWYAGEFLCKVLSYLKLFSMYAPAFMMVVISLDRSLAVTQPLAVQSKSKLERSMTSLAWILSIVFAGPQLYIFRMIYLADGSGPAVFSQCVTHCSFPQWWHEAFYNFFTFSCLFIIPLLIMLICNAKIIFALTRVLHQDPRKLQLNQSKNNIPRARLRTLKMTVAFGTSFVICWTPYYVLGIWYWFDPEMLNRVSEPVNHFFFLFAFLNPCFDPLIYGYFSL
Procedure: This affinity has been determined according to the following method:
Pituitaries from female Sprague Dawley rats were removed and homogenized with a Potter homogenizer in a 25 mM HEPES buffer (pH 7.4) containing 0.32 M sucrose, 100 μg/l PMSF (phenylmethylsulfonylfluoride), 5.6 U/l aprotinin and 10,000 U/l bacitracin. The homogenates were centrifuged at 700 g for 10 minutes and the supernatants were further centrifuged at 12,500 g for 30 minutes. The pellets were homogenized and centrifuged as described above, in the same buffer but without sucrose.
All homogenization, centrifugation and subsequent incubation steps were carried out at 4° C.
The assay was terminated by filtration under suction (Brandel 96-well harvester) through Whatman GF/B glass fiber filters. […] Each compound was tested in at least 4 experiments.
Specific binding data were analysed according to Scatchard's method.
For each test compound, the inhibitory constant (Ki) was calculated from its IC50 according to the Cheng and Prussofs equation: Ki=IC50 /(1+[radioligand]/Kd). Ki was then transformed into pKi (=-log Ki) for final expression of affinity scales.
In the case of `CCNC(=O)[C@@H]1CCCN1C(=O)[C@H](CCCNC(=N)N)NC(=O)[C@H](CC(C)C)N1CC[C@@]2(CCCN2C(=O)[C@H](Cc2ccc(O)cc2)NC(=O)[C@H](CO)NC(=O)[C@H](Cc2ccc3ccccc3c2)NC(=O)[C@H](Cc2c[nH]cn2)NC(=O)CN(C)C(C)=O)C1=O` [Example 13, AcSar-His-Nal-Ser-Tyr-SPL-Leu-Arg-Pro-NEt], the Ki is reported as 1.05 nM.
`CC(=O)N[C@H](Cc1ccc2ccccc2c1)C(=O)N[C@H](Cc1ccc(Cl)cc1)C(=O)N[C@H](Cc1cccnc1)C(=O)N[C@@H](CO)C(=O)N[C@@H](Cc1ccc(O)cc1)C(=O)N1CCC[C@@]12CCN([C@@H](CC(C)C)C(=O)N[C@@H](CCCNC(=N)N)C(=O)N1CCC[C@H]1C(=O)N[C@H](C)C(N)=O)C2=O` [Example 23, AcDNal-DpClPhe-DPal-Ser-Tyr-SPL-Leu-Arg-Pro-DAlaNH2] showed a Ki of 0.155 nM.
`CC(C)C[C@@H](C(=O)N[C@@H](CCCNC(=N)N)C(=O)N1CCC[C@H]1C(=O)NCC(N)=O)N1CC[C@@]2(CCCN2C(=O)[C@H](Cc2ccc(O)cc2)NC(=O)[C@H](CO)NC(=O)[C@H](Cc2c[nH]c3ccccc23)NC(=O)[C@@H](Cc2ccccc2)NC(=O)[C@@H]2CCC(=O)N2)C1=O` [Example 20, pGlu-DPhe-Trp-Ser-Tyr-SPL-Leu-Arg-Pro-Gly-NH2] showed a Ki of 4.07 nM.
`CC(=O)N[C@H](Cc1ccc2ccccc2c1)C(=O)N[C@H](Cc1ccc(Cl)cc1)C(=O)N[C@H](Cc1cccnc1)C(=O)N[C@@H](CO)C(=O)N[C@@H](CCCCNC(=O)c1cccnc1)C(=O)N1CCC[C@@]12CCN([C@@H](CC(C)(C)C)C(=O)N[C@@H](CCCCNC(C)C)C(=O)N1CCC[C@H]1C(=O)N[C@H](C)C(N)=O)C2=O` [Example 29, AcDNal-DpClPhe-DPal-Ser-NicLys-SPL-Npg-IprLys-Pro-DAlaNH2] showed a Ki of 0.363 nM.
`CCNC(=O)[C@@H]1CCCN1C(=O)[C@H](CCCNC(=N)N)NC(=O)[C@H](CC(C)C)N1CC[C@@]2(CCCN2C(=O)[C@H](Cc2ccc(O)cc2)NC(=O)[C@H](CO)NC(=O)[C@H](Cc2c[nH]c3ccccc23)NC(=O)[C@H](Cc2c[nH]cn2)NC(=O)CN(C)C(C)=O)C1=O` [Example 10, AcSar-His-Trp-Ser-Tyr-SPL-Leu-Arg-Pro-NEt] gave a Ki of 6.17 nM.
With `CCCC[C@@H](C(=O)N[C@@H](CCCNC(=N)N)C(=O)N1CCC[C@H]1C(=O)NCC)N1CC[C@@]2(CCCN2C(=O)[C@H](Cc2ccc(O)cc2)NC(=O)[C@H](CO)NC(=O)[C@H](Cc2c[nH]c3ccccc23)NC(=O)[C@H](Cc2c[nH]cn2)NC(=O)[C@@H]2CCC(=O)N2)C1=O` [Example 18, pGlu-His-Trp-Ser-Tyr-SPL-Nle-Arg-Pro-NEt] the Ki was 2.04 nM.
In the case of `CCNC(=O)[C@@H]1CCCN1C(=O)[C@H](CCCNC(=N)N)NC(=O)[C@H](CCC(C)C)N1CC[C@@]2(CCCN2C(=O)[C@H](Cc2ccc(O)cc2)NC(=O)[C@H](CO)NC(=O)[C@H](Cc2c[nH]c3ccccc23)NC(=O)[C@H](Cc2c[nH]cn2)NC(=O)[C@@H]2CCC(=O)N2)C1=O` [Example 15, pGlu-His-Trp-Ser-Tyr-SPL-Hol-Arg-Pro-NEt], the Ki is reported as 2.29 nM.
In the case of `CC(C)C[C@@H](C(=O)N[C@@H](CCCNC(=N)N)C(=O)N1CCC[C@H]1C(=O)N[C@H](C)C(N)=O)N1CC[C@@]2(CCCN2C(=O)[C@H](Cc2ccc(O)cc2)NC(=O)[C@H](CO)NC(=O)[C@H](Cc2c[nH]c3ccccc23)NC(=O)[C@@H](Cc2ccccc2)NC(=O)[C@@H]2CCC(=O)N2)C1=O` [Example 21, pGlu-DPhe-Trp-Ser-Tyr-SPL-Leu-Arg-Pro-DAlaNH2], the Ki is reported as 9.77 nM.
For `CC(=O)N[C@H](Cc1ccc2ccccc2c1)C(=O)N[C@H](Cc1ccc(Cl)cc1)C(=O)N[C@H](Cc1cccnc1)C(=O)N[C@@H](CO)C(=O)N[C@@H](Cc1ccc(O)cc1)C(=O)N1CCC[C@@]12CCN([C@@H](CC(C)(C)C)C(=O)N[C@@H](CCCNC(=N)N)C(=O)N1CCC[C@H]1C(=O)N[C@H](C)C(N)=O)C2=O` [Example 25, AcDNal-DpClPhe-DPal-Ser-Tyr-SPL-Npg-Arg-Pro-DAlaNH2], the Ki was 0.245 nM.
Compound `CCNC(=O)[C@@H]1CCCN1C(=O)[C@H](CCCNC(=N)N)NC(=O)[C@H](CC(C)C)N1CC[C@@]2(CCCN2C(=O)[C@H](Cc2ccc(O)cc2)NC(=O)[C@H](CO)NC(=O)[C@H](Cc2cccc3ccccc23)NC(=O)[C@H](Cc2c[nH]cn2)NC(=O)[C@@H]2CCC(=O)N2)C1=O` [Example 11, pGlu-His-INal-Ser-Tyr-SPL-Leu-Arg-Pro-NEt] has a Ki of 0.427 nM.
With `CC(=O)N[C@H](Cc1ccc2ccccc2c1)C(=O)N[C@H](Cc1ccc(Cl)cc1)C(=O)N[C@H](Cc1cccnc1)C(=O)N[C@@H](CO)C(=O)N[C@@H](CCCCNC(C)C)C(=O)N1CCC[C@@]12CCN([C@@H](CC(C)(C)C)C(=O)N[C@@H](CCCNC(=N)N)C(=O)N1CCC[C@H]1C(=O)N[C@H](C)C(N)=O)C2=O` [Example 27, AcDNal-DpCtPhe-DPal-Ser-IprLys-SPL-Npg-Arg-Pro-DAlaNH2] the Ki was 0.0977 nM.
With `CCNC(=O)[C@@H]1CCCN1C(=O)[C@H](CCCNC(=N)N)NC(=O)[C@H](CC(C)(C)C)N1CC[C@@]2(CCCN2C(=O)[C@H](Cc2ccc(O)cc2)NC(=O)[C@H](CO)NC(=O)[C@H](Cc2c[nH]c3ccccc23)NC(=O)[C@H](Cc2c[nH]cn2)NC(=O)[C@@H]2CCC(=O)N2)C1=O` [Example 16, pGlu-His-Trp-Ser-Tyr-SPL-Npg-Arg-Pro-NEt] the Ki was 0.55 nM.
With `CCNC(=O)[C@@H]1CCCN1C(=O)[C@H](CCCNC(=N)N)NC(=O)[C@@H](N1CC[C@@]2(CCCN2C(=O)[C@H](Cc2ccc(O)cc2)NC(=O)[C@H](CO)NC(=O)[C@H](Cc2c[nH]c3ccccc23)NC(=O)[C@H](Cc2c[nH]cn2)NC(=O)[C@@H]2CCC(=O)N2)C1=O)C(C)(C)C` [Example 17, pGlu-His-Trp-Ser-Tyr-SPL-Tle-Arg-Pro-NEt] the Ki was 1.78 nM.
For `CC(=O)N[C@H](Cc1ccc2ccccc2c1)C(=O)N[C@H](Cc1ccc(Cl)cc1)C(=O)N[C@H](Cc1c[nH]c2ccccc12)C(=O)N[C@@H](CO)C(=O)N[C@@H](Cc1ccc(O)cc1)C(=O)N1CCC[C@@]12CCN([C@@H](CC(C)C)C(=O)N[C@@H](CCCNC(=N)N)C(=O)N1CCC[C@H]1C(=O)N[C@H](C)C(N)=O)C2=O` [Example 22, AcDNal-DpClPhe-DTrp-Ser-Tyr-SPL-Leu-Arg-Prx)-DAlaNH2], the Ki was 0.891 nM.
`CCNC(=O)[C@@H]1CCCN1C(=O)[C@H](CCCNC(=N)N)NC(=O)[C@H](CC(C)C)N1CC[C@@]2(CCCN2C(=O)[C@H](Cc2ccc(O)cc2)NC(=O)[C@H](CO)NC(=O)[C@H](Cc2ccc3ccccc3c2)NC(=O)[C@H](Cc2c[nH]cn2)NC(=O)[C@@H]2CCC(=O)N2)C1=O` [Example 12, pGlu-His-Nal-Ser-Tyr-SPL-Leu-Arg-Pro-NEt] showed a Ki of 0.105 nM.
Compound `CC(=O)N[C@H](Cc1ccc2ccccc2c1)C(=O)N[C@H](Cc1ccc(Cl)cc1)C(=O)N[C@H](Cc1cccnc1)C(=O)N[C@@H](CO)C(=O)N[C@@H](Cc1ccc(O)cc1)C(=O)N1CCC[C@@]12CCN([C@@H](CC(C)(C)C)C(=O)N[C@@H](CCCCNC(C)C)C(=O)N1CCC[C@H]1C(=O)N[C@H](C)C(N)=O)C2=O` [Example 28, AcDNal-DpCtPhe-DPal-Ser-Tyr-SPL-Npg-IprLys-Pro-DAlaNH2] has a Ki of 0.309 nM.
For `CC(=O)N[C@H](Cc1ccc2ccccc2c1)C(=O)N[C@H](Cc1ccc(Cl)cc1)C(=O)N[C@H](Cc1csc2ccccc12)C(=O)N[C@@H](CO)C(=O)N[C@@H](Cc1ccc(O)cc1)C(=O)N1CCC[C@@]12CCN([C@@H](CC(C)C)C(=O)N[C@@H](CCCNC(=N)N)C(=O)N1CCC[C@H]1C(=O)N[C@H](C)C(N)=O)C2=O` [Example 24, AcDNal-DpClPhe-DBal-Ser-Tyr-SPL-Leu-Arg-Pr-DAlaNH2], the Ki was 0.251 nM.
Work on `CCNC(=O)[C@@H]1CCCN1C(=O)[C@H](CCCNC(=N)N)NC(=O)[C@H](CC(C)C)N1CC[C@@]2(CCCN2C(=O)[C@H](Cc2ccc(O)cc2)NC(=O)[C@H](CO)NC(=O)[C@H](Cc2c[nH]c3ccccc23)NC(=O)[C@H](Cc2c[nH]cn2)NC(=O)[C@@H]2CCC(=O)N2)C1=O` [Example 9, pGlu-His-Trp-Ser-Tyr-SPL-Leu-Arg-Pro-NEt] yielded a Ki of 1.15 nM.
`CC(=O)N[C@H](Cc1ccc2ccccc2c1)C(=O)N[C@H](Cc1ccc(Cl)cc1)C(=O)N[C@H](Cc1cccnc1)C(=O)N[C@@H](CO)C(=O)N[C@@H](CCCCNC(=O)c1cccnc1)C(=O)N1CCC[C@@]12CCN([C@@H](CC(C)(C)C)C(=O)N[C@@H](CCCNC(=N)N)C(=O)N1CCC[C@H]1C(=O)N[C@H](C)C(N)=O)C2=O` [Example 26, AcDNal-DpClPhe-DPal-Ser-NicLys-SPL-Npg-Arg-Pro-DAlaNH2] gave a Ki of 0.263 nM.

— patent publication US6153587A, “Conformationally constrained LH-RH analogues, their uses and pharmaceutical compositions containing them” (Laboratoire THERAMEX, priority 1996, dated 2000)
